According to ChEMBL document CHEMBL1629662, “Antimicrobial activity of prulifloxacin tested against a worldwide collection of gastroenteritis-producing pathogens, including those causing traveler's diarrhea” (2009):

Legend:
Escherichia coli [1] = experiment: Antibacterial activity against Escherichia coli by broth microdilution method; assay type: functional
Escherichia coli [2] = experiment: Antibacterial activity against Escherichia coli assessed as percent susceptible isolates by broth microdilution method; assay type: functional
Escherichia coli [3] = experiment: Antibacterial activity against Escherichia coli assessed as percent resistant isolates by broth microdilution method; assay type: functional
Salmonella typhimurium [4] = experiment: Antibacterial activity against Salmonella enterica serovar Typhimurium by broth microdilution method; assay type: functional, Salmonella enterica subsp. enterica serovar Typhimurium
Salmonella typhimurium [5] = experiment: Antibacterial activity against Salmonella enterica serovar Typhimurium assessed as percent resistant isolates by broth microdilution method; assay type: functional, Salmonella enterica subsp. enterica serovar Typhimurium; details: pooled result: one value given for 8 cell lines, strains, targets or settings
Salmonella enteritidis [6] = experiment: Antibacterial activity against Salmonella enterica serovar Enteritidis by broth microdilution method; assay type: functional, Salmonella enterica subsp. enterica serovar Enteritidis
Salmonella enteritidis [7] = experiment: Antibacterial activity against Salmonella enterica serovar Enteritidis assessed as percent susceptible isolates by broth microdilution method; assay type: functional, Salmonella enterica subsp. enterica serovar Enteritidis; details: pooled result: one value given for 5 cell lines, strains, targets or settings
Salmonella typhi [8] = experiment: Antibacterial activity against Salmonella enterica serovar Typhi by broth microdilution method; assay type: functional, Salmonella enterica subsp. enterica serovar Typhi
Salmonella typhi [9] = experiment: Antibacterial activity against Salmonella enterica serovar Typhi assessed as percent susceptible isolates by broth microdilution method; assay type: functional, Salmonella enterica subsp. enterica serovar Typhi
Salmonella paratyphi [10] = experiment: Antibacterial activity against Salmonella enterica serovar Paratyphi by broth microdilution method; assay type: functional, Salmonella enterica subsp. enterica serovar Paratyphi A
Salmonella paratyphi [11] = experiment: Antibacterial activity against Salmonella enterica serovar Paratyphi assessed as percent susceptible isolates by broth microdilution method; assay type: functional, Salmonella enterica subsp. enterica serovar Paratyphi A
[12] = Antibacterial activity against Salmonella enterica serovar Choleraesuis by broth microdilution method; assay type: functional, Salmonella enterica subsp. enterica serovar Choleraesuis
[13] = Antibacterial activity against Salmonella enterica serovar Choleraesuis assessed as percent susceptible isolates by broth microdilution method; assay type: functional, Salmonella enterica subsp. enterica serovar Choleraesuis
[14] = Antibacterial activity against Salmonella enterica serovar Newport by broth microdilution method; assay type: functional, Salmonella enterica subsp. enterica serovar Newport
[15] = Antibacterial activity against Salmonella enterica serovar Virchow by broth microdilution method; assay type: functional, Salmonella enterica subsp. enterica serovar Virchow
[16] = Antibacterial activity against Salmonella enterica serovar Heidelberg by broth microdilution method; assay type: functional, Salmonella enterica subsp. enterica serovar Heidelberg
Shigella sonnei [17] = experiment: Antibacterial activity against Shigella sonnei by broth microdilution method; assay type: functional
Shigella sonnei [18] = experiment: Antibacterial activity against Shigella sonnei assessed as percent resistant isolates by broth microdilution method; assay type: functional; details: pooled result: one value given for 4 cell lines, strains, targets or settings
Shigella flexneri = experiment: Antibacterial activity against Shigella flexneri by broth microdilution method; assay type: functional
Shigella boydii [19] = experiment: Antibacterial activity against Shigella boydii by broth microdilution method; assay type: functional
Shigella boydii [20] = experiment: Antibacterial activity against Shigella boydii assessed as percent susceptible isolates by broth microdilution method; assay type: functional; details: pooled result: one value given for 3 cell lines, strains, targets or settings
Shigella dysenteriae [21] = experiment: Antibacterial activity against Shigella dysenteriae by broth microdilution method; assay type: functional
Shigella dysenteriae [22] = experiment: Antibacterial activity against Shigella dysenteriae assessed as percent susceptible isolates by broth microdilution method; assay type: functional
Yersinia enterocolitica [23] = experiment: Antibacterial activity against Yersinia enterocolitica by broth microdilution method; assay type: functional
Yersinia enterocolitica [24] = experiment: Antibacterial activity against Yersinia enterocolitica assessed as percent susceptible isolates by broth microdilution method; assay type: functional
Yersinia enterocolitica [25] = experiment: Antibacterial activity against Yersinia enterocolitica assessed as percent resistant isolates by broth microdilution method; assay type: functional
[26] = tested on: Yersinia pseudotuberculosis; experiment: Antibacterial activity against Yersinia pseudotuberculosis by broth microdilution method; assay type: functional
[27] = tested on: Yersinia pseudotuberculosis; experiment: Antibacterial activity against Yersinia pseudotuberculosis assessed as percent susceptible isolates by broth microdilution method; assay type: functional
Aeromonas hydrophila [28] = experiment: Antibacterial activity against Aeromonas hydrophila by broth microdilution method; assay type: functional
Aeromonas hydrophila [29] = experiment: Antibacterial activity against Aeromonas hydrophila assessed as percent susceptible isolates by broth microdilution method; assay type: functional
Aeromonas hydrophila [30] = experiment: Antibacterial activity against Aeromonas hydrophila assessed as percent resistant isolates by broth microdilution method; assay type: functional
Aeromonas caviae [31] = experiment: Antibacterial activity against Aeromonas caviae by broth microdilution method; assay type: functional
Aeromonas caviae [32] = experiment: Antibacterial activity against Aeromonas caviae assessed as percent susceptible isolates by broth microdilution method; assay type: functional
Aeromonas caviae [33] = experiment: Antibacterial activity against Aeromonas caviae assessed as percent resistant isolates by broth microdilution method; assay type: functional
Aeromonas sobria [34] = experiment: Antibacterial activity against Aeromonas sobria by broth microdilution method; assay type: functional
Aeromonas sobria [35] = experiment: Antibacterial activity against Aeromonas sobria assessed as percent susceptible isolates by broth microdilution method; assay type: functional
Aeromonas sobria [36] = experiment: Antibacterial activity against Aeromonas sobria assessed as percent resistant isolates by broth microdilution method; assay type: functional
Aeromonas veronii [37] = experiment: Antibacterial activity against Aeromonas veronii by broth microdilution method; assay type: functional
Aeromonas veronii [38] = experiment: Antibacterial activity against Aeromonas veronii assessed as percent susceptible isolates by broth microdilution method; assay type: functional
Aeromonas veronii [39] = experiment: Antibacterial activity against Aeromonas veronii assessed as percent resistant isolates by broth microdilution method; assay type: functional
Plesiomonas shigelloides [40] = experiment: Antibacterial activity against Plesiomonas shigelloides by broth microdilution method; assay type: functional
Plesiomonas shigelloides [41] = experiment: Antibacterial activity against Plesiomonas shigelloides assessed as percent susceptible isolates by broth microdilution method; assay type: functional
Plesiomonas shigelloides [42] = experiment: Antibacterial activity against Plesiomonas shigelloides assessed as percent resistant isolates by broth microdilution method; assay type: functional
Vibrio cholerae = experiment: Antibacterial activity against Vibrio cholerae by broth microdilution method; assay type: functional
Vibrio parahaemolyticus = experiment: Antibacterial activity against Vibrio parahaemolyticus by broth microdilution method; assay type: functional
Vibrio alginolyticus = experiment: Antibacterial activity against Vibrio alginolyticus by broth microdilution method; assay type: functional
Vibrio fluvialis = experiment: Antibacterial activity against Vibrio fluvialis by broth microdilution method; assay type: functional
Vibrio vulnificus = experiment: Antibacterial activity against Vibrio vulnificus by broth microdilution method; assay type: functional
Vibrio sp. = experiment: Antibacterial activity against Vibrio sp. by broth microdilution method; assay type: functional
Campylobacter jejuni = experiment: Antibacterial activity against Campylobacter jejuni by broth microdilution method; assay type: functional
Campylobacter coli = experiment: Antibacterial activity against Campylobacter coli by broth microdilution method; assay type: functional

CCn1cc(C(=O)O)c(=O)c2ccc(C)nc21 [NALIDIXIC ACID]
MIC50 (Escherichia coli [1]): ≤ 8 µg/mL
MIC90 (Escherichia coli [1]): ≤ 8 µg/mL
Activity (Escherichia coli [2]): 95%
Activity (Escherichia coli [3]): 5%
MIC50 (Salmonella typhimurium [4]): ≤ 8 µg/mL
MIC90 (Salmonella typhimurium [4]): > 32 µg/mL
Activity (Salmonella typhimurium [5]): 15.8%
MIC50 (Salmonella enteritidis [6]): ≤ 8 µg/mL
MIC90 (Salmonella enteritidis [6]): > 32 µg/mL
Activity (Salmonella enteritidis [7]): 84.2%
MIC50 (Salmonella typhi [8]): ≤ 8 µg/mL
MIC90 (Salmonella typhi [8]): > 32 µg/mL
Activity (Salmonella typhi [9]): 84.2%
MIC50 (Salmonella paratyphi [10]): ≤ 8 µg/mL
MIC90 (Salmonella paratyphi [10]): > 32 µg/mL
Activity (Salmonella paratyphi [11]): 84.2%
MIC50 [12]: ≤ 8 µg/mL
MIC90 [12]: > 32 µg/mL
Activity [13]: 84.2%
MIC50 [14]: ≤ 8 µg/mL
MIC90 [14]: > 32 µg/mL
MIC50 [15]: ≤ 8 µg/mL
MIC90 [15]: > 32 µg/mL
MIC50 [16]: ≤ 8 µg/mL
MIC90 [16]: > 32 µg/mL
MIC50 (Shigella sonnei [17]): ≤ 8 µg/mL
MIC90 (Shigella sonnei [17]): ≤ 8 µg/mL
Activity (Shigella sonnei [18]): 3%
MIC50 (Shigella flexneri): ≤ 8 µg/mL
MIC90 (Shigella flexneri): ≤ 8 µg/mL
MIC50 (Shigella boydii [19]): ≤ 8 µg/mL
MIC90 (Shigella boydii [19]): ≤ 8 µg/mL
Activity (Shigella boydii [20]): 97%
MIC50 (Shigella dysenteriae [21]): ≤ 8 µg/mL
MIC90 (Shigella dysenteriae [21]): ≤ 8 µg/mL
Activity (Shigella dysenteriae [22]): 97%
MIC50 (Yersinia enterocolitica [23]): ≤ 8 µg/mL
MIC90 (Yersinia enterocolitica [23]): ≤ 8 µg/mL
Activity (Yersinia enterocolitica [24]): 93.5%
Activity (Yersinia enterocolitica [25]): 6.5%
MIC50 [26]: ≤ 8 µg/mL
MIC90 [26]: ≤ 8 µg/mL
Activity [27]: 93.5%
MIC50 (Aeromonas hydrophila [28]): ≤ 8 µg/mL
MIC90 (Aeromonas hydrophila [28]): > 32 µg/mL
Activity (Aeromonas hydrophila [29]): 81.2%
Activity (Aeromonas hydrophila [30]): 18.8%
MIC50 (Aeromonas caviae [31]): ≤ 8 µg/mL
MIC90 (Aeromonas caviae [31]): > 32 µg/mL
Activity (Aeromonas caviae [32]): 81.2%
Activity (Aeromonas caviae [33]): 18.8%
MIC50 (Aeromonas sobria [34]): ≤ 8 µg/mL
MIC90 (Aeromonas sobria [34]): > 32 µg/mL
Activity (Aeromonas sobria [35]): 81.2%
Activity (Aeromonas sobria [36]): 18.8%
MIC50 (Aeromonas veronii [37]): ≤ 8 µg/mL
MIC90 (Aeromonas veronii [37]): > 32 µg/mL
Activity (Aeromonas veronii [38]): 81.2%
Activity (Aeromonas veronii [39]): 18.8%
MIC (Plesiomonas shigelloides [40]): ≤ 8 µg/mL
MIC50 (Plesiomonas shigelloides [40]): ≤ 8 µg/mL
Activity (Plesiomonas shigelloides [41]): 100%
Activity (Plesiomonas shigelloides [42]): 0%
MIC (Vibrio cholerae): ≤ 8 µg/mL
MIC50 (Vibrio cholerae): ≤ 8 µg/mL
MIC90 (Vibrio cholerae): ≤ 8 µg/mL
MIC (Vibrio parahaemolyticus): ≤ 8 µg/mL
MIC50 (Vibrio parahaemolyticus): ≤ 8 µg/mL
MIC90 (Vibrio parahaemolyticus): ≤ 8 µg/mL
MIC (Vibrio alginolyticus): ≤ 8 µg/mL
MIC50 (Vibrio alginolyticus): ≤ 8 µg/mL
MIC90 (Vibrio alginolyticus): ≤ 8 µg/mL
MIC (Vibrio fluvialis): ≤ 8 µg/mL
MIC50 (Vibrio fluvialis): ≤ 8 µg/mL
MIC90 (Vibrio fluvialis): ≤ 8 µg/mL
MIC (Vibrio vulnificus): ≤ 8 µg/mL
MIC50 (Vibrio vulnificus): ≤ 8 µg/mL
MIC90 (Vibrio vulnificus): ≤ 8 µg/mL
MIC (Vibrio sp.): ≤ 8 µg/mL
MIC50 (Vibrio sp.): ≤ 8 µg/mL
MIC90 (Vibrio sp.): ≤ 8 µg/mL
MIC50 (Campylobacter jejuni): ≤ 8 µg/mL
MIC90 (Campylobacter jejuni): > 32 µg/mL
MIC50 (Campylobacter coli): ≤ 8 µg/mL
MIC90 (Campylobacter coli): > 32 µg/mL
